# Tests used:
# Test in all cases: relative viability (nuclei count vs DMSO), 5 days (fraction); higher = more cells survive
# GSK-J4 + Crizotinib = compound: CCOC(=O)CCNc1cc(N2CCc3ccccc3CC2)nc(-c2ccccn2)n1 [GSK-J4] + C[C@@H](Oc1cc(-c2cnn(C3CCNCC3)c2)cnc1N)c1c(Cl)ccc(F)c1Cl [Crizotinib] (partner 1 µM)
# Summary of the method: (§1)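 Lung cancer cell lines in 1536-well plates got either a single drug or a fixed anchor-drug dose together with five library-drug doses (not always all listed) in √10 steps, by pin tool, on the day after seeding. Nuclei were counted after 5 days, and relative viability is the treated-to-vehicle ratio of nuclei counts. Values are medians of duplicate plates.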
# AZ3146 + Trametinib = compound: CN1CCC(CC1)OC2=CC(=C(C=C2)NC3=NC=C4C(=N3)N(C(=O)N4C)C5CCCC5)OC [AZ3146] + CC(=O)Nc1cccc(-n2c(=O)n(C3CC3)c(=O)c3c(Nc4ccc(I)cc4F)n(C)c(=O)c(C)c32)c1 [Trametinib] (partner 0.02 µM)
# Summary of the method: as §1
# AZ3146 + Palbociclib = compound: CN1CCC(CC1)OC2=CC(=C(C=C2)NC3=NC=C4C(=N3)N(C(=O)N4C)C5CCCC5)OC [AZ3146] + CC(=O)c1c(C)c2cnc(Nc3ccc(N4CCNCC4)cn3)nc2n(C2CCCC2)c1=O [Palbociclib] (partner 0.5 µM)
# Summary of the method: as §1
# AZ3146 + Vorinostat = compound: CN1CCC(CC1)OC2=CC(=C(C=C2)NC3=NC=C4C(=N3)N(C(=O)N4C)C5CCCC5)OC [AZ3146] + O=C(CCCCCCC(=O)Nc1ccccc1)NO [Vorinostat] (partner 1 µM)
# Summary of the method: as §1
cell line,measurement,setting,value
UMC-11,relative viability,GSK-J4 + Crizotinib; first compound 0.5 µM,0.601
same,relative viability,GSK-J4 + Crizotinib; first compound 1.581 µM,0.557
same,relative viability,GSK-J4 + Crizotinib; first compound 5 µM,0.702
same,relative viability,GSK-J4 + Crizotinib; first compound 15.81 µM,0.666
same,relative viability,GSK-J4 + Crizotinib; first compound 50 µM,0.509
same,relative viability,AZ3146 + Trametinib; first compound 0.08 µM,0.575
same,relative viability,AZ3146 + Trametinib; first compound 0.253 µM,0.725
same,relative viability,AZ3146 + Trametinib; first compound 0.8 µM,0.629
same,relative viability,AZ3146 + Trametinib; first compound 2.53 µM,0.626
same,relative viability,AZ3146 + Trametinib; first compound 8 µM,0.313
same,relative viability,AZ3146 + Palbociclib; first compound 0.08 µM,0.267
same,relative viability,AZ3146 + Palbociclib; first compound 0.253 µM,0.342
same,relative viability,AZ3146 + Palbociclib; first compound 0.8 µM,0.335
same,relative viability,AZ3146 + Palbociclib; first compound 2.53 µM,0.303
same,relative viability,AZ3146 + Palbociclib; first compound 8 µM,0.306
same,relative viability,AZ3146 + Vorinostat; first compound 0.08 µM,0.299
same,relative viability,AZ3146 + Vorinostat; first compound 0.253 µM,0.389
same,relative viability,AZ3146 + Vorinostat; first compound 0.8 µM,0.406
same,relative viability,AZ3146 + Vorinostat; first compound 2.53 µM,0.267
same,relative viability,AZ3146 + Vorinostat; first compound 8 µM,0.175
